# Measurements reported in patent US8629100B2, “Method of inhibiting clostridium difficile by administration of oritavancin” (The Medicines Company, priority 2007, dated 2014).
# Tests used:
# [1] = system: genotypically distinct C. difficile (n = 33); experiment: Broth macrodilution MIC; assay type: cell-based; details: for MIC range / MIC90 / MIC: BM, broth macrodilution; for MIC90 / MIC: Clostridioides difficile; for MIC: read-out: GEO MIC
# [2] = system: indigenous gut microflora; experiment: In vitro human gut model: indigenous gut microflora counts; assay type: cell-based; details: for Decline in Bacteroides populations / Decline in enterococcal populations: following instillation, period E, vessel 3
# Source text: The gut model was designed to allow the study of the intestinal microflora in the low pH, carbohydrate-excess conditions of the proximal colon and the carbohydrate-depleted, non-acidic conditions of the distal colon (Macfarlane et al., Microb Ecol 1998; 35: 180-7). Microbiological and physicochemical measurements within the gut model vessels were validated against the intestinal contents of sudden death victims (Macfarlane et al., Microb Ecol 1998; 35: 180-7). Each gut model consists of three fermentation vessels connected in a weir cascade system top-fed with growth medium at a controlled rate (D=0.015 h^−1). Vessels were sparged with oxygen-free nitrogen to ensure anaerobiosis, heated via a water-jacketed system (37° C.) and maintained at specific pH using fermenter controller units (Biosolo 3, Brighton Systems, UK) delivering 0.5 M HCl/NaOH. Vessel 1 (280 mL) was operated at pH 5.5 and high substrate availability, thus reflecting the conditions within the proximal colon, while vessels 2 and 3 (300 mL) were operated at pH 6.2 and 6.8, respectively, with low substrate availability, thus reflecting the conditions within the distal colon. The gut model was primed with faecal slurry ˜10% (w/v) and allowed to equilibrate with respect to bacterial populations for 14 days.
# Faecal samples were collected from five healthy elderly (>65 years) volunteers and immediately transported to the laboratory under anaerobic conditions (GasPak, Oxoid, Basingstoke, UK). […] C. difficile-negative faeces were pooled and a coarse-filtered slurry (˜10% w/v) in sterile pre-reduced phosphate-buffered saline was prepared. Vessels of the gut models were filled to approximately two-thirds volume, and the growth medium pumps were started.
# Major culturable components of the indigenous gut microflora and C. difficile were enumerated by viable counting (log10 cfu/mL) on selective and non-selective agars as reported previously (Freeman et al., J Antimicrob Chemother 2005; 56: 717-25). Bacterial groups enumerated were: total facultative anaerobes, facultatively anaerobic lactose fermenters, total anaerobes, bifidobacteria, Bacteroides fragilis group, total clostridia, lactobacilli, enterococci, total C. difficile and C. difficile spores. C. difficile cytotoxin production was quantified using a Vero cell cytotoxicity assay as described previously (Freeman et al., J Antimicrob Chemother 2003; 52: 96-102). Cytotoxin titres were expressed in log10 relative units (RU). Only C. difficile total bacterial counts, spore counts and cytotoxin titres were enumerated in vessel 1 of the gut model.
# The use of the gut model to evaluate therapeutic interventions for CDI has been described previously (Freeman et al., J Antimicrob Chemother 2007; 60: 83-91; Freeman et al., J Antimicrob Chemother 2005; 56: 717-25). Briefly, following inoculation of each gut model with the faecal slurry, no further interventions were made for 13 days (period A). During period A, bacterial populations were enumerated every 2 days. Next (day 14), vessel 1 of each gut model was inoculated with a single inoculum of ˜10^7 cfu C. difficile PCR ribotype 027 spores (Freeman et al., J Antimicrob Chemother 2003; 52: 96-102), with no further interventions for 7 days (period B). From this point onwards, bacterial populations were enumerated daily.
# Oxford S. aureus = experiment: Antimicrobial-spore binding: washed exposed spores on S. aureus lawn (Example 3D); assay type: cell-based, Staphylococcus aureus; details: spores suspended in 350 mg/L; after 0, 1, 2, 4, 5, 6, 9 and 10 washes
# Method: A further potential explanation for the failure to recover oritavancin-treated C. difficile spores from the above experiments (in addition to presence of the drug in cellulose acetate filters) is that oritavancin may be able to bind C. difficile spores and directly damage spores, or inhibit spore germination and/or outgrowth. A simple experiment was conducted in order to assess antimicrobial-spore binding:
# Two solutions were prepared:
# 1) C. difficile spores (PCR ribotype 001, control), and
# 2) C. difficile spores suspended in 350 mg/L oritavancin (diluent: Tween-80-H2O).
# Fresh blood agar was inoculated with a lawn of the Oxford S. aureus. In one replicate, C. difficile spores were centrifuged (16000 g, 5 min), the supernatants removed and pellets re-suspended in 500 μL of Tween-80-H2O. 10 μL of the re-suspended spore suspension was inoculated onto the surface S. aureus lawn.
# In another replicate, C. difficile spore suspensions were washed a total of 10 times using this procedure and inoculated onto the surface of the S. aureus lawn.
# In both replicates agar was incubated aerobically at 37° C. overnight, and then the presence or absence of zones of inhibition were recorded.
# [3] = system: Staphylococcus aureus NCTC 6571; experiment: Growth on antibiotic-exposed cellulose acetate filters (Example 3C); assay type: cell-based; details: overnight culture
# Method: One mL solutions (containing no C. difficile spores) were processed as in Experiment 2B and filters placed onto Braziers CCEY agar. Onto the filters were inoculated 2×20 μL of:
# c) Staphylococcus aureus NCTC 6571 (Oxford strain, overnight culture).
# Growth/no growth was recorded following anaerobic incubation.
# S. aureus NCTC 6571 = experiment: Agar incorporation MIC against S. aureus NCTC 6571; assay type: cell-based; details: Staphylococcus aureus, NCTC6571; agar incorporation methodology
# [4] = system: genotypically distinct C. difficile (n = 33); experiment: Agar incorporation MIC; assay type: cell-based; details: for MIC range / MIC90: AI; for MIC90 / MIC: Clostridioides difficile
# Source text: Thirty-three genotypically distinct (by PCR ribotyping) C. difficile isolates were selected from a library of strains at the Leeds General Infirmary (Leeds, UK). Representative isolates of epidemic C. difficile PCR ribotypes 001, 106 and 027 were included in the panel. Control isolates of Staphylococcus aureus ATCC 29213, Enterococcus faecalis ATCC 29212 and Bacteroides fragilis ATCC 25285 were included in all MIC determinations to ensure procedure accuracy.
# Agar incorporation MICs were determined based on the method of Freeman and Wilcox (J Antimicrob Chemother 2001; 47: 244-6). Briefly, bacteria were cultured in Schaedler's anaerobic broth (Oxoid, Basingstoke, UK) at 37° C. for 24 h in an anaerobic cabinet (Don Whitley Scientific, Shipley). […] Oritavancin was prepared in 0.002% P80. All antimicrobial solutions were sterilized by filtration through 0.22 um syringe filters. […] Wilkins Chalgren agar (Oxoid) incorporating doubling dilutions of antimicrobial agents (0.03-16 mg/L) was prepared with and without 0.002% P80 and with and without 2% lysed horse blood (E&O Labs, Bonneybridge, UK). All media and diluents were pre-reduced overnight in the anaerobic cabinet. Bacterial cultures were diluted in sterile saline and inoculated onto the surface of agar incorporation agar plates using a multipoint inoculator (˜10^4 cfu). Agar incorporation plates were incubated anaerobically for 48 h. MIC endpoints were read as the lowest concentration of antimicrobial agent where there is no apparent growth (disregarding a visible haze of growth or a single colony).
# [5] = read-out: GEO MIC, AI, P80 no LHB
# [6] = read-out: GEO MIC, AI, P80 with LHB
# [7] = read-out: GEO MIC, AI, no P80 no LHB
# [8] = read-out: GEO MIC, AI, no P80 with LHB
SMILES,MIC range [1] [µg/mL],MIC90 [1] [µg/mL],MIC [1] [µg/mL],Decline in Bacteroides populations [2] [log10 cfu/mL],Decline in enterococcal populations [2] [log10 cfu/mL],Growth of S. aureus NCTC 6571 on filters through which antibiotic had been filtered [3],MIC range ([4]; P80 no LHB) [µg/mL],MIC range ([4]; P80 with LHB) [µg/mL],MIC range ([4]; no P80 no LHB) [µg/mL],MIC range ([4]; no P80 with LHB) [µg/mL],MIC90 ([4]; P80 no LHB) [µg/mL],MIC90 ([4]; P80 with LHB) [µg/mL],MIC90 ([4]; no P80 no LHB) [µg/mL],MIC90 ([4]; no P80 with LHB) [µg/mL],"MIC [4, 5] [µg/mL]","MIC [4, 6] [µg/mL]","MIC [4, 7] [µg/mL]","MIC [4, 8] [µg/mL]",other results
"CN[C@H](CC(C)C)C(=O)N[C@H]1C(=O)N[C@@H](CC(N)=O)C(=O)N[C@H]2C(=O)N[C@H]3C(=O)N[C@H](C(=O)N[C@H](C(=O)O)c4cc(O)cc(O)c4-c4cc3ccc4O)[C@H](O[C@H]3C[C@](C)(N)[C@@H](O)[C@H](C)O3)c3ccc(c(Cl)c3)Oc3cc2cc(c3O[C@@H]2O[C@H](CO)[C@@H](O)[C@H](O)[C@H]2O[C@H]2C[C@](C)(NCc3ccc(-c4ccc(Cl)cc4)cc3)[C@@H](O)[C@H](C)O2)Oc2ccc(cc2Cl)[C@H]1O [oritavancin, N-(4-(4-chlorophenyl)benzyl)A82846B]",0.06 to 1,1,0.31,~1,~2,grew,2 to 4,1 to 4,2 to 4,0.5 to 4,4,4,4,2,2.7,1.58,2.33,1.72,Broth macrodilution MICs lower than agar incorporation MICs [1]: 2- to 4 fold; Broth macrodilution geometric mean MICs lower than those for metronidazole [1]: ~2 fold; Broth macrodilution geometric mean MICs lower than those for vancomycin [1]: ~5 fold; Tested isolates more susceptible (≧2 doubling dilutions) than to vancomycin [1]: 76%; Bifidobacteria after cessation of instillation ([2]; period F): remained below the limits of detection; Effect of antibiotic-exposed C. difficile spores on growth of Oxford S. aureus (Oxford S. aureus): inhibitory to growth; MIC (S. aureus NCTC 6571): ~4 µg/mL
CN[C@H](CC(C)C)C(=O)N[C@H]1C(=O)N[C@@H](CC(N)=O)C(=O)N[C@H]2C(=O)N[C@H]3C(=O)N[C@H](C(=O)N[C@H](C(=O)O)c4cc(O)cc(O)c4-c4cc3ccc4O)[C@H](O)c3ccc(c(Cl)c3)Oc3cc2cc(c3O[C@@H]2O[C@H](CO)[C@@H](O)[C@H](O)[C@H]2O[C@H]2C[C@](C)(N)[C@H](O)[C@H](C)O2)Oc2ccc(cc2Cl)[C@H]1O [vancomycin],0.5 to 2,2,1.58,~6,~1,grew,1 to 4,0.5 to 2,0.5 to 2,1 to 4,2,1,2,2,1.3,1,1.51,1.35,Bifidobacteria lower than steady-state (period A) after cessation of instillation ([2]; period F): ~2 log10 cfu/mL
